# From US10435389B2, “Octahydrocyclopenta[c]pyrrole allosteric inhibitors of SHP2” (Krouzon Pharmaceuticals, Inc., priority 2017, dated 2019)
# Where a name gives a salt, the structure may show the parent alone.
# Target: T1, human recombinant SHP2 (Homo sapiens, UniProt Q06124)
# T1 sequence (Q06124 1-593): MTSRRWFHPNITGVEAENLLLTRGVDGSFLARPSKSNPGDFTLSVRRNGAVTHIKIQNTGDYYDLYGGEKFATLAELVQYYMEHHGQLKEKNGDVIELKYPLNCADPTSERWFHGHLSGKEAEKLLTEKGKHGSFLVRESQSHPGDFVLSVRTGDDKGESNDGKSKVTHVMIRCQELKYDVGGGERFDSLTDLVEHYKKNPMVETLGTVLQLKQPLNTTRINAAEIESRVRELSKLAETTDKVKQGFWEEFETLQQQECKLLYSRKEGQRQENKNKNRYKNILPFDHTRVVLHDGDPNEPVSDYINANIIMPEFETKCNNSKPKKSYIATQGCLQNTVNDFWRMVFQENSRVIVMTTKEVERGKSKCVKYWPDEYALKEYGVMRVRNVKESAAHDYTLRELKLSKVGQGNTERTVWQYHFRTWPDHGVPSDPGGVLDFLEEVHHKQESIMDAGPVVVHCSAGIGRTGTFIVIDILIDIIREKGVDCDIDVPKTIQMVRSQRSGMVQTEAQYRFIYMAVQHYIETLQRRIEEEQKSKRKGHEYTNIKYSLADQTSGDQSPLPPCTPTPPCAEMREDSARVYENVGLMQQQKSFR
# Assay: Protein Tyrosine Phosphatase (PTP) assay and IC50 measurements of inhibitors (DiFMUP fluorescence)
# Format: biochemical
# Details: 100 ng/mL human recombinant SHP2, 0.5 μM activating peptide IRS1_pY1172(dPEG8)pY1222, substrate DiFMUP 200 μM, room temperature; read-out: IC50 (SHP2 inhibition)
# Description: Example E: Protein Tyrosine Phosphatase (PTP) Assay and IC50 Measurements of Inhibitors
# The phosphatase activity of SHP2 was monitored using the surrogate substrate DiFMUP in a fluorescence assay format. The phosphatase reactions were performed at room temperature in 96-well black polystyrene plate, flat bottom plate using a final reaction volume of 100 μL with the following assay buffer conditions: 60 mM HEPES, pH 7.2, 75 mM NaCl, 75 mM KCl, 1 mM EDTA, 0.05% Tween-20, 5 mM DTT.
# To determine the IC50 of a compound, an eight-point dose response curve was generated in duplicate. Compounds were incubated at concentrations ranging from 0 μM to 10 μM with 100 ng/mL of human recombinant SHP2 and 0.5 μM of activating peptide IRS1_pY1172(dPEG8)pY1222 (sequence H2N-LN(pY)IDLDLV-(dPEG8)LST(pY)ASINFQK-amide) (SEQ ID NO 1). After 30 min incubation at room temperature (23-27° C.), the surrogate substrate DiFMUP (200 μM) was added to the reaction and incubated at room temperature for 30 min. The fluorescence signal was monitored using a microplate reader (Spectramax M5e, […]) using excitation and emission wavelengths of 340 and 450 nm, respectively. The inhibitor dose-response curves were analyzed using SoftmaxPro v5.2 software.
row,Structure (SMILES),IC50
1,"Cc1cccc(-c2ncc(N3C[C@@H]4C[C@](C)(N)C[C@@H]4C3)nc2N)c1Cl [Example 1, (3aR,5r,6aS)-2-(6-amino-5-(2-chloro-3-methylphenyl)pyrazin-2-yl)-5-methyloctahydrocyclopenta[c]pyrrol-5-amine hydrochloride salt]",< 9 µM
2,"C[C@]1(N)C[C@H]2CN(c3cnc(-c4cccc(Cl)c4Cl)c(N)n3)C[C@H]2C1 [Example 2, (3aR,5r,6aS)-2-(6-amino-5-(2,3-dichlorophenyl)pyrazin-2-yl)-5-methyloctahydrocyclopenta[c]pyrrol-5-amine]",< 9 µM
3,"C[C@]1(N)C[C@H]2CN(c3cnc(-c4cccc(Cl)c4F)c(N)n3)C[C@H]2C1 [Example 5, (3aR,5r,6aS)-2-(6-amino-5-(3-chloro-2-fluorophenyl)pyrazin-2-yl)-5-methyloctahydrocyclopenta[c]pyrrol-5-amine]",< 9 µM
4,"C[C@@]1(N)C[C@H]2CN(c3cnc(-c4cccc(Cl)c4Cl)c(N)n3)C[C@H]2C1 [Example 7, (3aR,5s,6aS)-2-(6-amino-5-(2,3-dichlorophenyl)pyrazin-2-yl)-5-methyloctahydrocyclopenta[c]pyrrol-5-amine]",< 9 µM
5,"Cc1cccc(-c2ncc(N3C[C@@H]4C[C@@](C)(N)C[C@@H]4C3)nc2N)c1Cl [Example 8, (3aR,5s,6aS)-2-(6-amino-5-(2-chloro-3-methylphenyl)pyrazin-2-yl)-5-methyloctahydrocyclopenta[c]pyrrol-5-amine]",< 9 µM
6,"C[C@]1(N)C[C@H]2CN(c3ncc(-c4cccnc4Cl)c(N)n3)C[C@H]2C1 [Example 13, (3aR,5r,6aS)-2-(4-amino-5-(2-chloropyridin-3-yl)pyrimidin-2-yl)-5-methyloctahydrocyclopenta[c]pyrrol-5-amine]",> 10 µM

# Now from value to compound:
row,IC50,Structure (SMILES)
1,< 9 µM,"C[C@]1(N)C[C@H]2CN(c3cnc(-c4cccnc4Cl)c(N)n3)C[C@H]2C1 [Example 4, (3aR,5r,6aS)-2-(6-amino-5-(2-chloropyridin-3-yl)pyrazin-2-yl)-5-methyloctahydrocyclopenta[c]pyrrol-5-amine]"
2,< 9 µM,"C[C@]1(N)C[C@H]2CN(c3ncc(-c4cccc(Cl)c4Cl)c(N)n3)C[C@H]2C1 [Example 11, (3aR,5r,6aS)-2-(4-amino-5-(2,3-dichlorophenyl)pyrimidin-2-yl)-5-methyloctahydrocyclopenta[c]pyrrol-5-amine]"
3,< 9 µM,"C[C@]1(N)C[C@H]2CN(c3ncc(-c4cccc(F)c4Cl)c(N)n3)C[C@H]2C1 [Example 12, (3aR,5r,6aS)-2-(4-amino-5-(2-chloro-3-fluorophenyl)pyrimidin-2-yl)-5-methyloctahydrocyclopenta[c]pyrrol-5-amine]"
